Source: ChEMBL document CHEMBL4831538, “Repositioning of the Anthelmintic Drugs Bithionol and Triclabendazole as Transthyretin Amyloidogenesis Inhibitors” (J Med Chem, 2021)
pIC50, pKd: −log10 of the molar value. Active and inactive are the calls of the source. No cut-off for these calls is given here.

Tests used:
Transthyretin [1] = biological target: T1, Transthyretin (Homo sapiens, UniProt P02766, V50M); test: Binding affinity to TTR V30M mutant (unknown origin) expressed in Escherichia coli incubated for 60 mins by tryptophan intrinsic fluorescence method; conditions: read-out: Kd(app)
[2] = test system: Transthyretin (Homo sapiens), P02766 [V50M]; test: (§1) Stabilization of TTR V30M mutant (unknown origin) assessed as acid-mediated protein aggregation inhibition ratio incubated for 1 week by absorbance method; conditions: time 1.0 weeks
[3] = test system: Transthyretin (Homo sapiens), P02766 [V50M]; test: Stabilization of TTR V30M mutant (unknown origin) assessed as suppression of TTR tetramer dissociation at 1 to 10 uM incubated for 9 days by glutaraldehyde cross-linking assay based SDS-PAGE analysis; conditions: dose 1-10 µM, time 9.0 day
[4] = test system: Transthyretin (Homo sapiens), P02766 [V50M]; test: Stabilization of TTR V30M mutant (unknown origin) assessed as suppression of TTR tetramer dissociation at 3 uM incubated for 9 days by glutaraldehyde cross-linking assay based SDS-PAGE analysis relative to control; conditions: time 9.0 day
[5] = test system: Transthyretin (Homo sapiens), P02766 [V142I]; test: Stabilization of TTR V142I mutant (unknown origin) expressed in Escherichia coli assessed as reduction in trypsin-induced aggregation incubated for 3 to 4 days by absorbance method; conditions: time 3-4 day
Transthyretin [6] = biological target: T2, Transthyretin (Homo sapiens, UniProt P02766); test: Stabilization of wild type TTR (unknown origin) expressed in Escherichia coli assessed as reduction in methanol-induced aggregation at 50 uM incubated for 60 min by absorbance method
Transthyretin [7] = biological target: T1, Transthyretin; test: as §1
Transthyretin [8] = biological target: T2, Transthyretin; test: Stabilization of wild type TTR (unknown origin) expressed in Escherichia coli assessed as reduction in methanol-induced aggregation incubated for 60 min by absorbance method
Transthyretin [9] = biological target: T1, Transthyretin; test: Binding affinity to TTR V30M mutant (unknown origin) by isothermal titration calorimetry

CC(C)=COc1ccc(/C=C/C(O)c2ccc(OC=C(C)C)cc2OCC(=O)O)cc1 (stereo not drawn)
pKd (Transthyretin [1]): 5.19

Cc1ccc(C(=O)c2cc(O)c(O)c([N+](=O)[O-])c2)cc1
Activity [2]: Dose-Dependent Effect | Activity [3]: Active | Activity [4]: 100% | Activity [5]: Dose-Dependent Effect

O=C(O)c1cc(-c2ccc(F)cc2F)ccc1O
Activity [2]: Dose-Dependent Effect | Activity [3]: Active

O=C(O)c1ccc2nc(-c3cc(Cl)cc(Cl)c3)oc2c1
Activity [2]: Dose-Dependent Effect | Activity [3]: Active | Activity [4]: 100% | Activity (Transthyretin [6]): Active | Activity [5]: Dose-Dependent Effect

Oc1ccc(Cl)cc1Cc1cc(Cl)ccc1O
Activity [3]: Active

CC(C)c1ccc2oc3nc(N)c(C(=O)O)cc3c(=O)c2c1 [AMLEXANOX]
pKd (Transthyretin [1]): 4.70

Oc1c(Cl)cc(Cl)cc1Sc1cc(Cl)cc(Cl)c1O [BITHIONOL]
pKd (Transthyretin [1]): 5.96 | Activity [2]: Dose-Dependent Effect | pIC50 (Transthyretin [7]): 5.62 | Activity [3]: Active | Activity [4]: 100% | pIC50 (Transthyretin [8]): 5.52 | Activity [5]: Dose-Dependent Effect | pKd (Transthyretin [9]): 7.21

CSc1nc2cc(Cl)c(Oc3cccc(Cl)c3Cl)cc2[nH]1 [TRICLABENDAZOLE]
Activity [2]: Dose-Dependent Effect | pIC50 (Transthyretin [7]): 5.46 | Activity [3]: Active | Activity [4]: 100% | Activity (Transthyretin [6]): Active | Activity [5]: Dose-Dependent Effect
